Legend:
HeLa [1] = test: Induction of apoptosis in human HeLa cells assessed as late apoptotic cells at 200 nM incubated for 48 hrs by annexin V-FITC/propidium iodide staining based flow cytometric analysis (reference value: 2.09%); format: functional
HeLa [2] = test: Inhibition of colony formation in human HeLa cells at 100 nM incubated for 48 hrs followed by compound washout and subsequent incubation for 10 days by crystal violet staining based assay relative to control; format: functional
HeLa [3] = test: Induction of apoptosis in human HeLa cells assessed as live cells at 250 nM incubated for 48 hrs by annexin V-FITC/propidium iodide staining based flow cytometric analysis (reference value: 95.3%); format: functional
HeLa [4] = test: Induction of cell cycle arrest in human HeLa cells assessed as accumulation at G2/M phase at 250 nM incubated for 24 hrs by PI staining based flow cytometric analysis (reference value: 9.20%); format: functional
HeLa [5] = test: Induction of cell cycle arrest in human HeLa cells assessed as accumulation at G2/M phase incubated for 24 hrs by PI staining based flow cytometric analysis; format: functional
HeLa [6] = test: Induction of cell cycle arrest in human HeLa cells assessed as accumulation at G0/G1 phase at 500 nM incubated for 24 hrs by PI staining based flow cytometric analysis (reference value: 68.86%); format: functional
Tubulin (Sus scrofa) = Tubulin (Sus scrofa) (UniProt P02554+P02550); test: Inhibition of pig brain tubulin polymerization at >5 uM by spectrophotometric method relative to control
HeLa [7] = test: Induction of cell cycle arrest in human HeLa cells assessed as accumulation at G0/G1 phase at 250 nM incubated for 24 hrs by PI staining based flow cytometric analysis (reference value: 68.86%); format: functional
HeLa [8] = test: Induction of cell cycle arrest in human HeLa cells assessed as accumulation at G0/G1 phase at 100 nM incubated for 24 hrs by PI staining based flow cytometric analysis (reference value: 68.86%); format: functional
HeLa [9] = test: Induction of apoptosis in human HeLa cells assessed as necrotic cells at 250 nM incubated for 48 hrs by annexin V-FITC/propidium iodide staining based flow cytometric analysis (reference value: 0.234%); format: functional
HeLa [10] = test: Induction of microtubule fragmentation in human HeLa cells incubated for 3 hrs by confocal microscopic method; format: functional, cell-based
HeLa [11] = test: Inhibition of colony formation in human HeLa cells at 150 nM incubated for 48 hrs followed by compound washout and subsequent incubation for 10 days by crystal violet staining based assay relative to control; format: functional

Tubulin (Sus scrofa), sequence (P02550 whole entry, looked up): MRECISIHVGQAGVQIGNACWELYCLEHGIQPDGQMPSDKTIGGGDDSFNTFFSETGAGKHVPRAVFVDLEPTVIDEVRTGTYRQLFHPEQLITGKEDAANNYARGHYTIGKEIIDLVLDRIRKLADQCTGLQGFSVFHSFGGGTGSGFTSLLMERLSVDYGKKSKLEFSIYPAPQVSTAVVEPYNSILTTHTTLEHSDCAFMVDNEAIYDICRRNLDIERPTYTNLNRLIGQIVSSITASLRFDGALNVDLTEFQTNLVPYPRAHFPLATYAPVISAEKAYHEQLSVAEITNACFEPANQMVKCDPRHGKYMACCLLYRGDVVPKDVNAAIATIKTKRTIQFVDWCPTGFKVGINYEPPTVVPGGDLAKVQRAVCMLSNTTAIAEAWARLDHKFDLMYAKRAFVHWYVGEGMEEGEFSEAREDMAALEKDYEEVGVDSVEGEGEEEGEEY
Tubulin (Sus scrofa), sequence (P02554 whole entry, looked up): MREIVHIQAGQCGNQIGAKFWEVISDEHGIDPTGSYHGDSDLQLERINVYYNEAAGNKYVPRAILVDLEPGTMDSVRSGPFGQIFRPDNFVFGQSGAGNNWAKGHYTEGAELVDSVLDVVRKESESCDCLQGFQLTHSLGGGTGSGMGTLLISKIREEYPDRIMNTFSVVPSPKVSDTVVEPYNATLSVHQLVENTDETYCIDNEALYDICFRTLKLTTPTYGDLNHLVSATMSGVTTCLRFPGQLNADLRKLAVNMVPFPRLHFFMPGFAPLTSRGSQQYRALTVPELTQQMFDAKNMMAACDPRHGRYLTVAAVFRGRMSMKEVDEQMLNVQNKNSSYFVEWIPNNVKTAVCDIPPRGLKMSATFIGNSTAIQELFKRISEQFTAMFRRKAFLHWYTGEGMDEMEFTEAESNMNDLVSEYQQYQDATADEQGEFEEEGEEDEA

`COc1cc(C(=O)c2nc(Nc3cccc(C)c3)nc3ccsc23)cc(OC)c1OC` showed an Activity (HeLa [1]) of 10.7%, an inhibition at 0.1 µM (HeLa [2]) of 71.8% and an Activity (HeLa [3]) of 23.6%. For the same compound, the Activity (HeLa [4]) was 84.24%, the Activity (HeLa [5]) was “Dose-dependent effect” and the Activity (HeLa [6]) was 0.06%. It also gave an inhibition (Tubulin (Sus scrofa)) of 50%, an Activity (HeLa [7]) of 2.39% and an Activity (HeLa [8]) of 59.55%. The Activity (HeLa [9]) was 9.34%, the Activity (HeLa [10]) was “Dose-dependent effect” and the inhibition at 0.15 µM (HeLa [11]) was 98.2%.

Source: ChEMBL document CHEMBL4311971, “Design and synthesis of (2-(phenylamino)thieno[3,2-d]pyrimidin-4-yl)(3,4,5-trimethoxyphenyl)methanone analogues as potent anti-tubulin polymerization agents” (Eur J Med Chem, 2019)
